Experiments:
Type in all cases: cell-based
[1] = tested on: DMS-114 (FGFR1 overexpression) cells; test: cell proliferation assay (CellTiterGlo), DMS-114 cells; conditions: Homo sapiens, DMS-114, 72 h
Source text: (§1) In some embodiments, the biological assay assess the ability of the compounds to inhibit cell proliferation.
(§2) In some embodiments, cells (e.g., SNU-16 (FGFR2-amplification) cells) may be suspended and dispensed in plates. In some embodiments, cells (e.g., UM-UC-14 (FGFR3-S249C) cells) may be suspended and dispensed in plates. In some embodiments, cells (e.g., DMS-114 (FGFR1 overexpression) cells) may by suspended and dispensed in plates. In some embodiments, cells (e.g., RT-112 (FGFR3-Tacc3 fusion) cells) may be suspended and dispensed in plates. In some embodiments, to determine the effect of the compounds of the present disclosure on cell proliferation, cells (e.g., SNU-16, UM-UC-14, DMS-114 and […] cells) may be incubated in the presence of vehicle control (e.g., DMSO) or a compound of the present disclosure at varying concentrations and the inhibition of cell growth may be determined by luminescent quantification (e.g., of intracellular ATP content using CellTiterGlo), according to the manufacturers protocol. In some embodiments, to determine the IC50 values, the vehicle-treated cells were normalized as viable cells and the growth was analyzed using a software (e.g., the CDD Vault software (Collaborative Drug Discovery, Burlingame, CA)).

[2] = tested on: UM-UC-14 (FGFR3-S249C) cells; test: cell proliferation assay (CellTiterGlo), UM-UC-14 cells; conditions: UMUC14, 72 h
Source text: as §1, §2

[3] = tested on: RT-112 (FGFR3-Tacc3 fusion) cells; test: cell proliferation assay (CellTiterGlo), RT-112 cells; conditions: Homo sapiens, RT-112, RT112 cells, 72 hours
Source text: as §1, §2

[4] = tested on: SNU-16 (FGFR2-amplification) cells; test: cell proliferation assay (CellTiterGlo), SNU-16 cells; conditions: Homo sapiens, 72 hours
Source text: as §1, §2

IC50 [4]	SMILES	IC50 [1]	IC50 [2]	IC50 [3]
	Cc1nc2ccc(Oc3ccc4ncc(-c5cnn(CC6(O)CC6)c5)nc4c3C3CCOC3)c(F)c2[nH]1 (centres unmarked) [Compound 70]	20 to 100 nM	20 to 100 nM	20 to 100 nM
	Cc1nc2ccc(Oc3ccc4ncc(-c5cnn(CC6CC(F)(F)C6)c5)nc4c3C3=CCOC3(C)C)cc2[nH]1 [Compound 71]	100 to 400 nM	20 to 100 nM	100 to 400 nM
	Cc1nc2ccc(Oc3ccc4ncc(-c5cnn(CC6CC(F)(F)C6)c5)nc4c3C3CCOC3)c(F)c2[nH]1 (centres unmarked) [Compound 72]	20 to 100 nM	20 to 100 nM	< 20 nM
	Cc1nc2ccc(Oc3ccc4ncc(-c5cnn(C6CC7(C6)CC(F)(F)C7)c5)nc4c3Cl)cc2[nH]1 [Compound 101]	≥ 400 nM	100 to 400 nM	100 to 400 nM
	Cc1nc2ccc(Oc3ccc4ncc(-c5cnn(CC6(O)CC(O)C6)c5)nc4c3Cl)c(F)c2[nH]1 (centres unmarked) [Compound 102]	20 to 100 nM	< 20 nM	< 20 nM
	Cc1nc2ccc(Oc3ccc4ncc(-c5cnn(CC6(O)CC6)c5)nc4c3-n3ccnc3)c(F)c2[nH]1 [Compound 103]	≥ 400 nM	100 to 400 nM	100 to 400 nM
	Cc1nc2ccc(Oc3ccc4ncc(-c5cnn([C@@H](C)C6CCC(F)(F)CC6)c5)nc4c3Cl)cc2[nH]1 [Compound 104]	≥ 400 nM	20 to 100 nM	20 to 100 nM
	Cc1nc2ccc(Oc3ccc4ncc(-c5cnn([C@H](C)C6CCC(F)(F)CC6)c5)nc4c3Cl)cc2[nH]1 [Compound 105]	≥ 400 nM	20 to 100 nM	20 to 100 nM
	COC1CCN(C(=O)Cn2cc(-c3cnc4ccc(Oc5ccc6nc(C)[nH]c6c5)c(Cl)c4n3)cn2)CC1 [Compound 113]	≥ 400 nM	20 to 100 nM	20 to 100 nM
	CC(=O)N1CCN(C(=O)Cn2cc(-c3cnc4ccc(Oc5ccc6nc(C)[nH]c6c5)c(Cl)c4n3)cn2)CC1 [Compound 114]	≥ 400 nM	≥ 400 nM	100 to 400 nM
	Cc1nc2ccc(Oc3ccc4ncc(-c5cnn(CC6CCS(=O)(=O)CC6)c5)nc4c3S(C)(=O)=O)cc2[nH]1 [Compound 116]	≥ 400 nM	100 to 400 nM	≥ 400 nM
	Cc1nc2ccc(Oc3ccc4ncc(-c5cnn(CC6CC(F)(F)C6)c5)nc4c3N3CCCC3=O)cc2[nH]1 [Compound 117]	≥ 400 nM	≥ 400 nM	≥ 400 nM
	Cc1nc2ccc(Oc3ccc4ncc(-c5cnn(C[C@H](C)O)c5)nc4c3Cl)c(F)c2[nH]1 [Compound 118]	100 to 400 nM	< 20 nM	< 20 nM
	Cc1nc2ccc(Oc3ccc4ncc(-c5cnn(CC6CC(F)(F)C6)c5)nc4c3NC(=O)CCCCl)cc2[nH]1 [Compound 120]	≥ 400 nM	100 to 400 nM	100 to 400 nM
	Cc1nc2ccc(Oc3ccc4ncc(-c5cnn([C@@H](C)CO)c5)nc4c3Cl)cc2[nH]1 [Compound 125]	≥ 400 nM	20 to 100 nM	20 to 100 nM
	Cc1nc2ccc(Oc3ccc4ncc(-c5cnn(CC6(O)CC6)c5)nc4c3I)cc2[nH]1 [Compound 129]	≥ 400 nM	20 to 100 nM	20 to 100 nM
	Cc1nc2ccc(Oc3ccc4ncc(-c5cnn(C(C)(C)CO)c5)nc4c3Cl)c(F)c2[nH]1 [Compound 142]	100 to 400 nM	< 20 nM	< 20 nM
	Cc1nc2ccc(Oc3ccc4ncc(-c5cnn(CC(=O)N6CCOCC6)c5)nc4c3Cl)c(F)c2[nH]1 [Compound 155]	20 to 100 nM	< 20 nM	
	Cc1nc2ccc(Oc3ccc4ncc(-c5cnn(C6CC(=O)C6)c5)nc4c3Cl)c(F)c2[nH]1 [Compound 156]	20 to 100 nM	< 20 nM	
	Cc1nc2cc(Oc3ccc4ncc(-c5cnn(CC6CC(F)(F)C6)c5)nc4c3C(F)F)ccc2[nH]1 [Compound 157]	100 to 400 nM	20 to 100 nM	

IC50 [4]	SMILES	IC50 [1]	IC50 [2]	IC50 [3]
	Cc1nc2cc(Oc3ccc4ncc(-c5cnn(CC6CC(F)(F)C6)c5)nc4c3C=O)ccc2[nH]1 [Compound 158]	≥ 400 nM	≥ 400 nM	
	Cc1nc2ccc(Oc3ccc4ncc(-c5cnn(CC6CC(F)(F)C6)c5)nc4c3N)cc2[nH]1 [Compound 159]	≥ 400 nM	≥ 400 nM	
	Cc1nc2ccc(Oc3ccc4ncc(-c5cnn(C(C)(C)C6CC(O)C6)c5)nc4c3Cl)cc2[nH]1 (centres unmarked) [Compound 160]	100 to 400 nM	20 to 100 nM	
	Cc1nc2ccc(Oc3ccc4ncc(-c5cnn(C6CC7(CC(O)C7)C6)c5)nc4c3Cl)cc2[nH]1 (centres unmarked) [Compound 161]	≥ 400 nM	20 to 100 nM	
	Cc1nc2ccc(Oc3ccc4ncc(-c5cnn(CC6(O)CC6)c5)nc4c3Cl)c(F)c2[nH]1 [Compound 162]	20 to 100 nM	20 to 100 nM	
	Cc1nc2ccc(Oc3ccc4ncc(-c5cnn(C6CCN(C)C7(CC7)C6)c5)nc4c3Cl)cc2[nH]1 (centres unmarked) [Compound 163]	100 to 400 nM	20 to 100 nM	
	Cc1nc2ccc(Oc3ccc4ncc(-c5cnn(CC6(O)CC6)c5)nc4c3C3=CCCC3)cc2[nH]1 [Compound 164]	20 to 100 nM	20 to 100 nM	
	Cc1nc2ccc(Oc3ccc4ncc(-c5cnn(C6CC7(CC(=O)C7)C6)c5)nc4c3Cl)cc2[nH]1 [Compound 165]	≥ 400 nM	20 to 100 nM	
	Cc1nc2ccc(Oc3ccc4ncc(-c5cnn(C[C@H]6C[C@](C)(O)C6)c5)nc4c3Cl)c(F)c2[nH]1 [Compound 166]	100 to 400 nM	20 to 100 nM	
	Cc1nc2ccc(Oc3ccc4ncc(-c5cnn(C[C@H]6C[C@@](C)(O)C6)c5)nc4c3Cl)c(F)c2[nH]1 [Compound 167]	20 to 100 nM	< 20 nM	
	Cc1nc2ccc(Oc3ccc4ncc(-c5cnn([C@H]6C[C@@](C)(O)C6)c5)nc4c3Cl)cc2[nH]1 [Compound 168]	≥ 400 nM	20 to 100 nM	
	Cc1nc2ncc(Oc3ccc4ncc(-c5cnn(C6CCC(F)(F)CC6)c5)nc4c3Cl)cc2[nH]1 [Compound 169]	≥ 400 nM	≥ 400 nM	
	Cc1nc2ccc(Oc3ccc4ncc(-c5cnn(C6(C)CC=C(F)CC6)c5)nc4c3Cl)cc2[nH]1 (centres unmarked) [Compound 170]	≥ 400 nM	100 to 400 nM	
	Cc1nc2ccc(Oc3ccc4ncc(-c5cnn(C6(C)CCC(F)(F)CC6)c5)nc4c3Cl)cc2[nH]1 [Compound 171]	≥ 400 nM	100 to 400 nM	
	Cc1nc2ccc(Oc3ccc4ncc(-c5cnn([C@H]6C[C@H](O)C6)c5)nc4c3Cl)cc2[nH]1 [Compound 172]	≥ 400 nM	100 to 400 nM	
	Cc1nc2ccc(Oc3ccc4ncc(-c5cnn([C@H]6C[C@@H](O)C6)c5)nc4c3Cl)cc2[nH]1 [Compound 173]	100 to 400 nM	20 to 100 nM	
< 20 nM	Cc1nc2ccc(Oc3ccc4ncc(-c5cnn(CC(=O)N6CCC(F)(F)C6)c5)nc4c3Cl)c(F)c2[nH]1 [Compound 174]	100 to 400 nM	< 20 nM	
< 20 nM	Cc1nc2ccc(Oc3ccc4ncc(-c5cnn([C@H]6C[C@](C)(O)C6)c5)nc4c3Cl)cc2[nH]1 [Compound 175]	100 to 400 nM	20 to 100 nM	
100 to 400 nM	Cc1nc2ccc(Oc3ccc4ncc(-c5cnn(C6CCNC7(CC7)C6)c5)nc4c3Cl)cc2[nH]1 (centres unmarked) [Compound 176]	100 to 400 nM	< 20 nM	
≥ 400 nM	Cc1nc2ccc(Oc3ccc4ncc(-c5cnn(C6CCC(F)(F)CC6)c5)nc4c3Cl)nc2[nH]1 [Compound 177]	≥ 400 nM	≥ 400 nM	
